Legend:
[1] = In vitro diffusion studies (Franz diffusion cell); assay type: physicochemical; conditions: within a 4-hour time period; 0.1 μm nylon membrane, buffer pH 7.0 with Tween 20 0.5% w/v
Description: The formula characterization was assessed by examining its diffusion pattern. An automated Franz diffusion cell apparatus (MicroettePlus; Hanson Research, Chatsworth, Calif., US) with a diffusion area of 1.76 cm^2 was utilized to examine the diffusion of OM from the prepared formula as described previously (Ahmed et al., 2019. Internat J Pharmaceu 570: 118657). A 0.1 μm nylon diffusion membrane and a buffer (pH 7.0) containing Tween 20 (0.5% w/v) were used, and this was stirred at 400 rpm. The aliquots were analyzed for OM concentration by HPLC as previously reported. The samples were collected at 0.5, 1, 2, 4, 8, 12, 24 and 48 h.

[2] = tested on: bile duct-ligated fibrotic rats; conditions: 1 mg/kg/day orally; cited from earlier work
[3] = tested on: TAA-induced hepatic fibrosis rats; assay: Histopathology of duodenal sections and detection of sprue-like enteropathy in TAA-induced hepatic fibrosis rats; assay type: in vivo, rat; conditions: two months
Description: Rats were given freshly prepared TAA (0.9% w/v in saline solution, 200 mg/kg, ip) twice weekly for eight weeks. A normal control (NC) group of rats (n=8) received injections of the vehicle twice weekly for eight weeks. The TAA-treated rats were randomly assigned to groups (n=8), including a test group for each dosage of a free drug (not encapsulated in ZMS), each dosage of zeinmersomes encapsulating the drug, and a positive control group (PC) having hepatic fibrosis but receiving a vehicle-only treatment instead of a drug treatment. Five groups of rats (n=8) were given freshly prepared TAA (0.9% w/v in saline solution, 200 mg/kg, ip) twice weekly for eight weeks and a normal control (NC) group received vehicle injections, as described in Example 4. The five TAA groups included a positive control group (PC, untreated) and four groups treated with low and high doses (2 and 4 mg/kg/day) of OM as raw drug (OL & OH, respectively) and the same low and high doses (2 and 4 mg/kg/day) of OM formulated as zeinmersomes (OLZMS & OHZMS, respectively). […] The plasma levels of ALT and AST and the homogenate levels of IL-6, reduced glutathione (GSH), TNF-α, malondialdehyde (MDA), and protein content were measured using ELISA kits (MyBioSource, Inc. CA, USA). In addition, the concentrations of olmesartan in plasma and liver homogenate were measured by HPLC/MS. […]

[4] = cited from earlier work
AT2 receptors = biological target: T1, AT2 receptors (Homo sapiens, UniProt P50052); conditions: cited from earlier work
T1 sequence (P50052 1-363): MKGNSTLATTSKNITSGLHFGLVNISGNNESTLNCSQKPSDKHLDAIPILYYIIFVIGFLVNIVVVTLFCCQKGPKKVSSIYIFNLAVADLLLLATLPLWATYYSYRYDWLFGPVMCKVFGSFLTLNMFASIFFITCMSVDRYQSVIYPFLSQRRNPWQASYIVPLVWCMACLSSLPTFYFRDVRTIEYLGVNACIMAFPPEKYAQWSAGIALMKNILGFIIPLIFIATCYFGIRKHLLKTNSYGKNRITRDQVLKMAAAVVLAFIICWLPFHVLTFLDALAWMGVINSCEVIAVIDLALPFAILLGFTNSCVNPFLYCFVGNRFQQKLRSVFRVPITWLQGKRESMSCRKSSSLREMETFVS

[5] = tested on: methotrexate-induced intestinal mucositis; conditions: pretreatment with 0.5, 1.0, or 5.0 mg/kg; cited from earlier work

CCCc1nc(C(C)(C)O)c(C(=O)OCc2oc(=O)oc2C)n1Cc1ccc(-c2ccccc2-c2nnn[nH]2)cc1 [OM, (5-methyl-2-oxo-1,3-dioxol-4-yl)methyl 5-(2-hydroxypropan-2-yl)-2-propyl-3-[[4-[2-(2H-tetrazol-5-yl)phenyl]phenyl]methyl]imidazole-4-carboxylate]
diffusion of OM (percentage permeated) [1]: ~97.5±13.07%
liver hydroxyproline content, mRNA expression of collagen, α-smooth muscle actin, and plasma levels of TGF-β [2]: significantly reduced
duodenal histopathology (TAA-induced duodenal changes) ([3]; high dose 4 mg/kg/day oral): mild improvement
duodenal histopathology (TAA-induced duodenal changes) ([3]; low dose 2 mg/kg/day oral): swollen distorted villi with damaged desquamated surface epithelium
drug accumulation ([4]; OM once daily for 10 days): did not result in drug accumulation
dose at which safe and well tolerated ([4]; Schwocho et al. 2001): up to 160 mg/day
time for plasma olmesartan to approach steady state ([4]; treatment with OM): 5 days
antagonistic effects on the AT2 receptors (AT2 receptors): almost no antagonistic effects
enteropathy (diarrhea, weight loss, decreased sucrose activity) [5]: caused enteropathy
inflammatory infiltration, vascular congestion, ulcerations, hemorrhagic areas; myeloperoxidase, IL-1β and TNF-α levels [5]: decreased
